# Reference: patent US9359367B2, “Tetrahydroquinazolinone derivatives as PARP inhibitors” (Lupin Limited, priority 2012, dated 2016)
# Biological target: T1, PARP1 (Homo sapiens, UniProt P09874)
# T1 construct: purchased BPS Bioscience
# Experiment: PARP1 Biochemical Assay (BPS Bioscience kit, chemiluminescence)
# Details: histone-coated plate, biotinilated NAD+, 25° C. for 60 min, luminescence, read-out: PARP 1 inhibition IC50
# Protocol: The assay was performed using BPS Bioscience kit. The 96-well strip plate was coated with 50 μl of histone mixture and incubated at 4° C. overnight. Next day the wells were blocked by adding 100 μl of blocking buffer. The plate was washed and 25 μl of appropriate concentration of PARP1 (25-75 ng/well) was added in all the Test and Positive control wells. In Negative control wells enzyme was replaced with 25 μl of water. To it 5 μl each of 10×PARP assay buffer and activated DNA was added in all the wells (Test, Positive and Negative control wells). 10× concentration of test compounds were prepared and 5 μl test compounds were added respective wells. Reaction volume was made up to 45 μl by adding water to all the wells. Finally, 5 μl of 10×PARP assay mixture containing biotinilated NAD^+ was added in each well and the plate was incubated at ambient temperature (25° C.) for 60 min. After washing the plate 50 μl of Streptavidin-HRP was added in each well and incubated the plate at RT for 30 min. The plate was washed and the luminescence was read in PHERAStar plate reader after adding 100 μl of chemiluminescent substrate.
# PARP inhibition was calculated using the following formula: % PARP inhibition=100−[(RLU test compound treated sample−RLU negative control)/(RLU Positive control−RLU negative control)×100]
# IC50 values were calculated by plotting % inhibition against the respective concentrations of test compounds using GraphPad Prism 5.
# T1 sequence (P09874 whole entry): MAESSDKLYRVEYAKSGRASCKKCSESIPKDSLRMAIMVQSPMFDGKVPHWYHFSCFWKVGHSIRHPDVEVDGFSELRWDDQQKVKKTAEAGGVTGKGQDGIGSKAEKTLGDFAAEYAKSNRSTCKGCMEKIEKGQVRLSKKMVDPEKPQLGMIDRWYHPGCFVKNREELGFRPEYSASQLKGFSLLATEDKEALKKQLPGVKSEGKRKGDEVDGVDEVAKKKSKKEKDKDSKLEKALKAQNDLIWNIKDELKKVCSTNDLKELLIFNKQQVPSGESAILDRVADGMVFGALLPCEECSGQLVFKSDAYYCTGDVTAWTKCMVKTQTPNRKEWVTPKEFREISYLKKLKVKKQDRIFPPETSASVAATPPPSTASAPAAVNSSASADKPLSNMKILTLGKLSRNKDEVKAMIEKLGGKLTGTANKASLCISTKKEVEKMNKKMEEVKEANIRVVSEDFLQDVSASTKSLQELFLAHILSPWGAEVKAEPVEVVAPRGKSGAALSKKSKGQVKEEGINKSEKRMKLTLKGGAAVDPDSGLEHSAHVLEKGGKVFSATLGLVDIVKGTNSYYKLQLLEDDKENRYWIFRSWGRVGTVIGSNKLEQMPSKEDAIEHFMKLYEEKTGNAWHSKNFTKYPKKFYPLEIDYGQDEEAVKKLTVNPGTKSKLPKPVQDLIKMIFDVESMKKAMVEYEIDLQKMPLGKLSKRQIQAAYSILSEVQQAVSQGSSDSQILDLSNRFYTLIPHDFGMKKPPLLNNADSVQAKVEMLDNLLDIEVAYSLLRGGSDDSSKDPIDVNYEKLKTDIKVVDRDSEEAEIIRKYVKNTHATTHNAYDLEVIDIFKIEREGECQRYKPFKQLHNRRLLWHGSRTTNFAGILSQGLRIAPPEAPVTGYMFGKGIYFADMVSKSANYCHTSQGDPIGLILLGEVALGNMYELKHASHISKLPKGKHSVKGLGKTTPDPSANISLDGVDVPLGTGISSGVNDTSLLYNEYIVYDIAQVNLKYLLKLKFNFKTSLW
row,IC50 [nM],Structure (SMILES)
1,1 to 500,"O=c1[nH]c(CCCN2CCN(c3ccc(F)cc3)CC2)nc2c1CCCC21CC1 [Compound 1, 2′-(3-(4-(4-fluorophenyl)piperazin-1-yl)propyl)-6′,7′-dihydro-3′H-spiro[cyclopropane-1,8′-quinazolin]-4′(5′H)-one]"
2,1 to 500,"O=c1[nH]c(CCCN2CCN(c3ccc(Cl)cc3)CC2)nc2c1CCCC21CC1 [Compound 2, 2′-(3-(4-(4-chlorophenyl)piperazin-1-yl)propyl)-6′,7′-dihydro-3′H-spiro[cyclopropane-1,8′-quinazolin]-4′(5′H)-one]"
3,1 to 500,"O=c1[nH]c(CCCN2CC=C(c3ccccc3)CC2)nc2c1CCCC21CC1 [Compound 3, 2′-(3-(4-phenyl-5,6-dihydropyridin-1(2H)-yl)propyl)-6′,7′-dihydro-3′H-spiro[cyclopropane-1,8′-quinazolin]-4′(5′H)-one]"
4,1 to 500,"O=c1[nH]c(CCCN2CCN(c3ccc(F)cc3)CC2)nc2c1CC1(CC2)CC1 [Compound 5, 2′-(3-(4-(4-fluorophenyl)piperazin-1-yl)propyl)-7′,8′-dihydro-3′H-spiro[cyclopropane-1,6′-quinazolin]-4′(5′H)-one]"
5,1 to 500,"O=c1[nH]c(CCCN2CCN(c3ccc(Cl)cc3)CC2)nc2c1CC1(CC2)CC1 [Compound 6, 2′-(3-(4-(4-chlorophenyl)piperazin-1-yl)propyl)-7′,8′-dihydro-3′H-spiro[cyclopropane-1,6′-quinazolin]-4′(5′H)-one]"
6,1 to 500,"O=c1[nH]c(CCCN2C3CCC2CN(c2ccc(F)cc2)C3)nc2c1CC1(CC2)CC1 [Compound 7, 2′-(3-(3-(4-fluorophenyl)-3,8-diazabicyclo[3.2.1]octan-8-yl)propyl)-7′,8′-dihydro-3′H-spiro[cyclopropane-1,6′-quinazolin]-4′(5′H)-one]"
7,5000 to 500000,"O=c1[nH]c(CCCN2CC3CCC(C2)N3c2ccc(F)cc2)nc2c1CC1(CC2)CC1 [Compound 8, 2′-(3-(8-(4-fluorophenyl)-3,8-diazabicyclo[3.2.1]octan-3-yl)propyl)-7′,8′-dihydro-3′H-spiro[cyclopropane-1,6′-quinazolin]-4′(5′H)-one]"
8,1 to 500,"O=c1[nH]c(CCCN2CC=C(c3ccc(F)cc3)CC2)nc2c1CC1(CC2)CC1 [Compound 9, 2′-(3-(4-(4-fluorophenyl)-5,6-dihydropyridin-1(2H)-yl)propyl)-7′,8′-dihydro-3′H-spiro[cyclopropane-1,6′-quinazolin]-4′(5′H)-one]"
9,501 to 5000,"O=c1[nH]c(CCCN2CCN(c3ccc(Cl)c(Cl)c3)CC2)nc2c1CC1(CC2)CC1 [Compound 10, 2′-(3-(4-(3,4-dichlorophenyl)piperazin-1-yl)propyl)-7′,8′-dihydro-3′H-spiro[cyclopropane-1,6′-quinazolin]-4′(5′H)-one]"
10,501 to 5000,"O=c1[nH]c(CCCN2CC3CC2CN3c2ccc(F)cc2)nc2c1CC1(CC2)CC1 (stereo not shown) [Compound 11, 2′-(3-(5-(4-fluorophenyl)-2,5-diazabicyclo[2.2.1]heptan-2-yl)propyl)-7′,8′-dihydro-3′H-spiro[cyclopropane-1,6′-quinazolin]-4′(5′H)-one]"
11,501 to 5000,"O=c1[nH]c(CCCN2CCN(c3ccccc3)CC2)nc2c1CC1(CC2)CC1 [Compound 13, 2′-(3-(4-phenylpiperazin-1-yl)propyl)-7′,8′-dihydro-3′H-spiro[cyclopropane-1,6′-quinazolin]-4′(5′H)-one]"
12,1 to 500,"O=c1[nH]c(CCCN2CCN(c3ccccc3Cl)CC2)nc2c1CC1(CC2)CC1 [Compound 14, 2′-(3-(4-(2-chlorophenyl)piperazin-1-yl)propyl)-7′,8′-dihydro-3′H-spiro[cyclopropane-1,6′-quinazolin]-4′(5′H)-one]"
13,5000 to 500000,"O=c1[nH]c(CCCN2CCN(c3ccc(F)cc3)CC2)nc2c1CCC1(CC1)C2 [Compound 15, 2′-(3-(4-(4-fluorophenyl)piperazin-1-yl)propyl)-5′,6′-dihydro-3′H-spiro[cyclopropane-1,7′-quinazolin]-4′(8′H)-one]"
